Results published in PubChem BioAssay (NCI).
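Exposure lasted 48 hours, with cells grown in 96-well plates and compounds tested at five concentrations. GI50 = concentration required for 50% inhibition of growth. TGI: concentration producing complete growth inhibition.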 Where a SMILES comes first, the peptide text is derived from it.

Experiments:
Experiment in all cases: DTP human tumour cell line panel, 48 h
[1] = system: SK-MEL-5 melanoma
[2] = system: NCI-H522 lung
[3] = system: BT-549 breast
[4] = system: T-47D breast
[5] = system: SK-MEL-2 melanoma
[6] = system: 786-0 renal
[7] = system: SW-620 colon
[8] = system: NCI-H23 lung
[9] = system: DU-145 prostate
[10] = system: HCT-15 colon

SMILES	GI50 [1] [µM]	TGI [1] [µM]	GI50 [2] [µM]	TGI [2] [µM]	GI50 [3] [µM]	TGI [3] [µM]	GI50 [4] [µM]	TGI [4] [µM]	GI50 [5] [µM]	TGI [5] [µM]	GI50 [6] [µM]	TGI [6] [µM]	GI50 [7] [µM]	TGI [7] [µM]	GI50 [8] [µM]	TGI [8] [µM]	GI50 [9] [µM]	TGI [9] [µM]	GI50 [10] [µM]	TGI [10] [µM]
Nc1nc(N)c2c(n1)NC(c1ccccc1)C1CCc3ccccc3C1=N2 (stereo unspecified)	0.638	2.25	4.53	21.2	5.42	19.7	4.57	25.6	3.48	14	5.99	19.1	6.3	20.7	4.56	19.4	4.38	17.1	4.06	17.1
CCOC(=N)CC(=O)Nc1cccc(Cl)c1		> 100		> 100						> 100		> 100		> 100		> 100				
CCCCc1n(Cc2ccc3ccccc3c2)cc[n+]1Cc1ccc2ccccc2c1	0.612	1.86									1.52	2.97	1.2	2.77	0.793	2.31	1.41	2.83		
COc1ccc(-c2cc(-c3cc(Cl)cc(Br)c3O)[nH]c(=O)n2)cc1				30								32		46.9		29.4				
Cc1ccc(NC(=S)SCCC(=O)O)cc1				> 100						> 100		> 100		> 100		> 100				> 100
COc1cc2c(cc1OC)NC(=O)NC(Cc1ccc3c(c1)OCO3)CC2 (stereo unspecified)		> 100		76.2						> 100		> 100		> 100		> 100				> 100
CCN(CC)C(=O)N1CCN(C=S)CC1		> 100		> 100						> 100		> 100		> 100		> 100				> 100
CSc1nc(NC2OC(COC(C)=O)C(OC(C)=O)C(OC(C)=O)C2OC(C)=O)c(-c2csc(N)n2)c(=O)n1C (stereo unspecified)		> 100		> 100						> 100		39.4		> 100		> 100				> 100
Clc1ccc2nc(-c3ccccc3)nc(Cl)c2c1		> 100								> 100		> 100		> 100		> 100				> 100
COc1ccc2c(c1)CC1c3c(ccc(OC)c3O)CC2N1C (stereo unspecified)		32.7		37.9						37.1		> 73.3		45.4		> 100				> 100
CC1=C(Cl)C=CP(=O)(OC(C)C)C1 (stereo unspecified)		> 100		87.7						> 100		> 100		> 100		> 100				> 100
COC(=O)C1C=NNC1C(=O)OC (stereo unspecified)		> 100		> 100						> 100		> 100		> 100		> 100				> 100
O=[N+]([O-])c1ccccc1C=NC12CC3CC(CC(C3)C1)C2		> 100		> 100						> 100		> 100		> 100		> 100				> 100
O=c1c(Br)cc2c(-c3ccccc3)c3cc(Br)c(O)c(Br)c3oc-2c1Br		> 100						> 100				> 100		> 100		> 100		> 100		> 100
CCCCN(CCCC)CCC(O)c1cc2c(Cl)cc(Cl)cc2c2cc(C(F)(F)F)ccc12 (stereo unspecified)				32.9				28.9		30.2		25.7		25.7		30.6		22		19.1
O=C1Nc2ccccc2/C1=C\c1nc(C2CCN(S(=O)(=O)c3ccc(F)cc3)CC2)n2ccccc12			1.94	12	1.85	8.48	4.57	> 100	2.08	7.35	2.37	6.71	85.7	> 100	4.29	68.4	4.35	> 100	> 100	> 100
O=[n+]1c2ccccc2n([O-])c2cc(Cl)ccc21	9.11	21.6	1.47	3.11	5.2	24.1	1.96	11.7			3.12	13.4	3.73	18.7	4	25	11.3	24.1	2.55	8.59
Cc1ccc(C2=C(c3ccccc3)C(c3ccccc3)Oc3ccc(C)cc32)cc1 (stereo unspecified)	1.92	3.63	2.28	5.63	4.76	20.4			1.9	3.98	2.17	4.74	3.79	13.2	2.2	5.53	3.56	12.5	16.9	35.8
CCCCCCCCCCCCCCCC(=O)OCC1OC(OC)C2NP(=O)(N(CCCl)CCCl)OC1C2O (stereo unspecified)		38		3.42		5.96				24.3		3.85		17.4		6.76		54.8		14.2
CCCCN[C@H]1C2C3CC4C5CC(C42)C1(C)C53 (stereo partly specified)		> 100		> 100						> 100		> 100		> 100						> 100
COc1ccc(/C=c2/sc3n(c2=O)NC2(CCC(C)CC2)NN=3)cc1 (stereo unspecified)		> 100		> 100						> 100		> 100		> 100		> 100				
CCC(C)C1NC(=O)C2CCCN2C(=O)CNC(=O)C(C)NC(=O)C(Cc2ccccc2)NC(=O)C(C(C)C)NC1=O (stereo unspecified) (cyclo(GPIVFA); configuration not given here)		> 100										> 100		> 100		> 100				> 100
O=C(Nc1cc(Cl)cc(Cl)c1)/C(Cc1nc2ccccc2[nH]c1=O)=N/NC(=O)c1ccncc1		> 100								> 100		> 100		> 100						> 100
